Measurements as given in patent US20220378706A1, “PHARMACEUTICAL COMPOSITION COMPRISING PDE9 INHIBITOR” (Eisai R&D Management Co., Ltd., priority 2017, published 2022).

Assay: Single dose clinical study: safety assessments (adverse events)
Type: in vivo, human
Conditions: for incidence of any TEAEs: Part B 100 mg Cohort
Source text: Safety assessments consisted of monitoring and recording all adverse events (AEs) and serious adverse events (SAEs); laboratory evaluation for hematology, blood chemistry, and urine values; periodic measurement of vital signs (including orthostatic changes in blood pressure [BP] and heart rate [HR]) and electrocardiograms (ECGs); and the performance of physical examinations.
Safety data evaluated included AEs, clinical laboratory results, vital signs, and ECGs. Treatment emergent adverse events (TEAEs) were summarized by presenting the incidence of AEs for each cohort and dose group. For the laboratory, vital signs, and ECG data in all cohorts in any treatment period, the baseline was the values recorded immediately prior to dosing with study drug in that treatment period.

COc1ncc(C)c(-c2ccc3c(c2)[nH]c(=O)c2cnn([C@H]4CCOC4)c23)c1C [Compound A, (S)-7-(2-methoxy-3,5-dimethylpyridin-4-yl)-1-(tetrahydrofuran-3-yl)-1H-pyrazolo[4,3-c]quin olin-4(5H)-one]
tolerability (Part A healthy adult subjects, single oral doses 10 to 1200 mg): well tolerated
TEAE back pain (Part B): 20.8%
TEAE dizziness (Part B): 16.7%
TEAE headache (Part B): 29.2%
TEAE musculoskeletal stiffness (Part B): 20.8%
TEAE nausea (Part B): 12.5%
TEAE pain in extremity (Part B): 8.3%
TEAE post lumbar puncture syndrome (Part B): 37.5%
TEAE procedural nausea (Part B): 8.3%
TEAE procedural vomiting (Part B): 8.3%
TEAE vomiting (Part B): 20.8%
incidence of any TEAEs (fasted state): 66.7%
incidence of any TEAEs (fed state): 50%
tolerability (Part B healthy adults with serial CSF sampling, single oral doses 50 to 400 mg): well tolerated
subjects with at least 1 TEAE (Part B, both treatment periods, all doses): 83.3%
tolerability (Part C healthy elderly subjects, single dose 100 mg): well tolerated
subjects with at least 1 TEAE (Part C healthy elderly, 100 mg): 16.7%
TEAE headache (Part D): 16.7%
tolerability (Part D healthy Japanese adult subjects, single oral doses 25 to 400 mg): well tolerated
subjects with at least 1 TEAE (Part D, all doses): 38.9%
TEAE dizziness (Parts A and C): 5.6%
TEAE headache (Parts A and C): 11.6%
TEAE increase in orthostatic heart rate response (Parts A and C): 3.7%
TEAE insomnia (Parts A and C): 5.6%
TEAE paresthesia (Parts A and C): 3.7%
TEAE postural orthostatic tachycardia (Parts A and C): 5.6%
deaths or SAEs (Parts A and C): no deaths or SAEs
subjects with at least 1 TEAE (Parts A and C, all doses): 42.6%
maximum tolerated dose (single oral doses 10 to 1200 mg, healthy adults): not reached
